Results reported in US11285156B2, “Substituted piperazines as KRAS G12C inhibitors” (Amgen Inc., priority 2018, dated 2022).
Read-outs that look alike come from different tables or passages of the source.

Experiments:
[1] = system: Phosphorylation of ERK1/2 in A549 cells; experiment: Phospho-ERK1/2 MSD assay in A549 cells; assay type: cell-based; conditions: read-out: p-ERK IC50 (2 h, A549; μM)
Procedure: Phospho-ERK1/2 MSD Assay:
MIA PaCa-2 (ATCC® CRL-1420™) and A549 (ATCC® CCL-185™) cells were cultured in RPMI 1640 Medium (ThermoFisher Scientific 11875093) containing 10% fetal bovine serum (ThermoFisher Scientific 16000044) and 1× penicillin-streptomycin-glutamine (ThermoFisher Scientific 10378016). Sixteen hours prior to compound treatment, MIA PaCa-2 or A549 cells were seeded in 96-well cell culture plates at a density of 25,000 cells/well and incubated at 37° C., 5% CO2. A compound dose-response titration was diluted in growth media, added to appropriate wells of a cell culture plate, and then incubated at 37° C., 5% CO2 for 2 or 4 hours (see Table 15). Following compound treatment, cells were stimulated with 10 ng/mL EGF (Roche 11376454001) for 10 min, washed with ice-cold Dulbecco's phosphate-buffered saline, no Ca2+ or Mg2+ (ThermoFisher Scientific 14190144), and then lysed in RIPA buffer (50 mM Tris-HCl pH 7.5, 1% Igepal, 0.5% sodium deoxycholate, 150 mM NaCl. and 0.5% sodium dodecyl sulfate) containing protease inhibitors (Roche 4693132001) and phosphatase inhibitors (Roche 4906837001). Phosphorylation of ERK1/2 in compound-treated lysates was assayed using Phospho-ERK1/2 Whole Cell Lysate kits (Meso Scale Discovery K151DWD) according to the manufacturer's protocol.

[2] = system: Phosphorylation of ERK1/2 in MIA PaCa-2 cells; experiment: Phospho-ERK1/2 MSD assay in MIA PaCa-2 cells; assay type: cell-based; conditions: read-out: p-ERK IC50 (2 h, MiaPaCa-2; μM)
Method in brief: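 Phospho-ERK1/2 measured by MSD electrochemiluminescence kit in RIPA lysates of MIA PaCa-2 cells. Cells were treated with compound titrations for 2 or 4 h at 37 °C, 5% CO2, followed by a 10 min pulse of 10 ng/mL EGF.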

[3] = biological target: GDP-bound KRAS protein (aa 1-169), containing both G12C and C118A amino acid substitutions (Homo sapiens (Human), UniProt P01116, C118A/G12C); experiment: Coupled nucleotide exchange assay (SOS-mediated nucleotide exchange, AlphaScreen); assay type: biochemical; conditions: 5 min compound pre-incubation
GDP-bound KRAS protein (aa 1-169), containing both G12C and C118A amino acid substitutions, sequence (P01116 other isoform, or with tags, fused parts or gaps G12C/C118A): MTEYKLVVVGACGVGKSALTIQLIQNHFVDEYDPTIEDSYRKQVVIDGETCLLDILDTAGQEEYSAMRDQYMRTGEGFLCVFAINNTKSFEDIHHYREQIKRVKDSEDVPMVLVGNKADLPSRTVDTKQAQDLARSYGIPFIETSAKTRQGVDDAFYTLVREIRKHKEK

[4] = Homo sapiens, A549, 2 h, 2 h compound treatment, A549 cells, EGF stimulated
[5] = Homo sapiens, MIA PaCa-2, 2 h, 2 h compound treatment, MIA PaCa-2 cells, EGF stimulated
[6] = 2 h compound treatment, A549 cells, EGF stimulated
[7] = 2 h compound treatment, MIA PaCa-2 cells, EGF stimulated

| IC50 [1, 4] | IC50 [2, 5] | SMILES | also measured |
| --- | --- | --- | --- |
| > 7.5 µM | 0.223 µM | [2H]C1([2H])CN(c2nc(=O)n(-c3c(C)ccnc3C(C)C)c3nc(-c4c(O)cccc4F)c(F)cc23)CC([2H])([2H])N1C(=O)C=C (atropisomer, axis not shown; (M)) [Example 72-20, (M)-6-Fluoro-7-(2-fluoro-6-hydroxy-phenyl)-1-(2-isopropyl-4-methyl-3-pyridyl)-4-(3,3,5,5-tetradeuterio-4-prop-2-enoyl-piperazin-1-yl)pyrido[2,3-d]pyrimidin-2-one] | Coupled exchange IC50 (5 min; μM) [3]: 0.382 µM |
| > 7.5 µM | 0.306 µM | [2H]C1([2H])CN(C(=O)C=C)CC([2H])([2H])N1c1nc(=O)n(-c2c(C)ccnc2C(C)C)c2nc(-c3c(O)cccc3F)c(F)cc12 (atropisomer, axis not shown; (M)) [Example 72-21, (M)-6-Fluoro-7-(2-fluoro-6-hydroxy-phenyl)-1-(2-isopropyl-4-methyl-3-pyridyl)-4-(2,2,6,6-tetradeuterio-4-prop-2-enoyl-piperazin-1-yl)pyrido[2,3-d]pyrimidin-2-one] | Coupled exchange IC50 (5 min; μM) [3]: 0.468 µM |
|  |  | C=CC(=O)N1C[C@H](C)N(c2nc(=O)n(-c3c(C)ccnc3C(C)C)c3nc(-c4ccccc4C(C)C)c(Cl)cc23)C[C@H]1C (atropisomer, axis not shown; (M)) [Example 92-1, (M)-6-Chloro-4-[(2S,5R)-2,5-dimethyl-4-prop-2-enoyl-piperazin-1-yl]-1-(2-isopropyl-4-methyl-3-pyridyl)-7-(2-isopropylphenyl)pyrido[2,3-d]pyrimidin-2-one] | IC50 [1, 6]: > 7.5 µM; IC50 [2, 7]: 0.014 µM; IC50 ([3]; read-out: Coupled exchange IC50 (5 min; μM)): 0.016 µM |
| 4.73 µM | 0.262 µM | C=CC(=O)N1C[C@H](C)N(c2nc(=O)n(-c3c(C(C)C)cc(Br)nc3C(C)C)c3nc(-c4ccccc4F)c(Cl)cc23)C[C@H]1C [Example 102-4, 1-(6-Bromo-2,4-diisopropyl-3-pyridyl)-6-chloro-4-[(2S,5R)-2,5-dimethyl-4-prop-2-enoyl-piperazin-1-yl]-7-(2-fluorophenyl) pyrido[2,3-d]pyrimidin-2-one] |  |
|  |  | C=CC(=O)N1C[C@H](C)N(c2nc(=O)n(-c3c(C(C)C)ccnc3C(C)C)c3nc(-c4ccccc4F)c(Cl)cc23)C[C@H]1C [Example 124-1, 6-Chloro-1-(2,4-diisopropyl-3-pyridyl)-4-[(2S,5R)-2,5-dimethyl-4-prop-2-enoyl-piperazin-1-yl]-7-(2-fluorophenyl)pyrido[2,3-d]pyrimidin-2-one] | IC50 [1, 6]: > 7.5 µM; IC50 [2, 7]: 0.024 µM |
| > 7.5 µM | 0.093 µM | C=CC(=O)N1C[C@H](C)N(c2nc(=O)n(-c3c(C(C)C)ccnc3C(C)C)c3nc(-c4ccccc4)c(Cl)cc23)C[C@H]1C [Example 124-7, 6-Chloro-1-(2,4-diisopropyl-3-pyridyl)-4-[(2S,5R)-2,5-dimethyl-4-prop-2-enoyl-piperazin-1-yl]-7-phenyl-pyrido[2,3-d]pyrimidin-2-one] |  |
|  |  | C=CC(=O)N1C[C@H](C)N(c2nc(=O)n(-c3c(C(C)C)nc(CN(C)C)nc3C(C)C)c3nc(-c4ccccc4F)c(Cl)cc23)C[C@H]1C [Example 160, 4-((2S,5R)-4-Acryloyl-2,5-dimethylpiperazin-1-yl)-6-chloro-1-(2-((dimethylamino)methyl)-4,6-diisopropylpyrimidin-5-yl)-7-(2-fluorophenyl)pyrido[2,3-d]pyrimidin-2(1H)-one] | IC50 ([1]; Homo sapiens, A549, 2 h): > 7.5 µM; IC50 ([2]; Homo sapiens, MIA PaCa-2, 2 h): 0.058 µM |

| SMILES | IC50 [1, 4] | IC50 [2, 5] | also measured |
| --- | --- | --- | --- |
| C=CC(=O)N1C[C@H](C)N(c2nc(=O)n(-c3c(C(C)C)ccnc3C(C)C)c3nc(-c4ccccc4C(C)C)c(Cl)cc23)C[C@H]1C [Example 124-8, 6-Chloro-1-(2,4-diisopropyl-3-pyridyl)-4-[(2S,5R)-2,5-dimethyl-4-prop-2-enoyl-piperazin-1-yl]-7-(2-isopropylphenyl)pyrido[2,3-d]pyrimidin-2-one] | 6.36 µM | 0.24 µM |  |
